According to patent US20060122264A1, “Stem cell invasion inhibitor” (Yasumi Uchida, etal, priority 2003, published 2006):
“Also recorded” adds a separate entry of the source. Like-named read-outs stand apart in the source and are kept apart here. Marks after values point to notes of the source that are not given here.

Columns and labels:
[1] = tested on: human coronary artery smooth muscle cells; test: Proliferation of human coronary artery smooth muscle cells; type: cell-based; conditions: for number of cells after culturing for three days: Smooth muscle cells
Procedure: (§1) Human umbilical vein endothelial cells (HUBEC) (1×10^5/cm^2) were inoculated into a medium containing MCDB-104, 10% FBS, ECGF (100 ng/mL), EGF (10 ng/mL), and heparin (100 ng/mL), and phenolsulfonphthalein or bromosulfophthalein was added to the medium, followed by culturing for three days. Thereafter, the resultant cells were counted, and the number of the cells was compared with that in the case where no drug was added to the medium. In a manner similar to that described above, human coronary artery smooth muscle cells (1×10^5/cm^2) were cultured in a medium containing MCDB-104, 10% FBS, and EGF (10 ng/mL) for three days, and the resultant cells were counted.

[2] = tested on: human coronary artery smooth muscle cells; conditions: International Publication WO 01/93871; cited from earlier work
[3] = International Publication WO 01/93871; cited from earlier work
[4] = tested on: Human umbilical vein endothelial cells (HUBEC); test: Proliferation of human vascular endothelial cells; type: cell-based; conditions: for number of cells after culturing for three days: Endothelial cells
Procedure: as §1

[5] = tested on: stenosis at the talc-administered site; test: Inflammatory stenosis caused by talc at the coronary artery adventitia: degree of stenosis; type: in vivo, beagle dogs
Procedure: (§2) Anesthetized beagle dogs were employed for the test. While each of the animals was ventilated with air, thoracotomy was performed at the left fifth intercostal space, to thereby expose the heart. Subsequently, talc powder was administered to the vicinity of the adventitia at an intermediate portion of the anterior descending branch of the left coronary artery, which caused inflammation. Subsequently, the thoracotomy site was closed, and phenolsulfonphthalein was injected under conditions similar to those of the test described above in (A) by use of a perforated balloon equipped with an injection syringe containing the drug. After recovery from anesthesia, the animal was bred for one month, and then subjected to coronary angiography. Thereafter, the heart was extirpated from the animal, and then subjected to formalin fixation. A microscopic sample of the talc-administered portion was prepared, and the sample was subjected to β-actin staining, followed by determination of the density of β-actin-positive cells (i.e., stem cells).

[6] = tested on: β-actin-positive vascular stem cells in coronary artery; test: Insertion of drug-eluting stent into coronary artery: stem cell density; type: in vivo, beagle dogs; conditions: two-layer-coated drug-eluting stent (inner PLGA 7510, outer PLA 0010), one month
Source text: (§3) Nembutal-anesthetized beagle dogs were employed for the test. While each of the animals was ventilated with air, an 8-French guide catheter was inserted through the right common carotid artery, followed by left coronary angiography. Subsequently, a drug-eluting stent (inner layer: PLGA 7510 containing 50% phenolsulfonphthalein, outer layer: PLA 0010 containing 50% phenolsulfonphthalein) was inserted into the left circumflex branch, and then expanded at 9 atm, followed by placement of the stent. After recovery from anesthesia, the animal was bred for one month, and then was again subjected to coronary angiography. The degree of stenosis was measured at the most stenotic site of the stent-inserted portion, and the thus-measured stenosis degree was compared with that in the case of a non-eluting stent group (i.e., a group in which a stent that is not coated with a drug was inserted). Subsequently, the heart was extirpated from the animal, and then subjected to formalin fixation. Thereafter, a microscopic sample of the stent-inserted portion was prepared, followed by staining of vascular smooth muscle β-actin. Stem cells per unit area were counted at the highest-cell-density site of the intima, media, or adventitia of the above-stained sample. Comparison (in terms of stem cell density) was performed between the drug-eluting stent group and the non-eluting stent group (i.e., the group in which a stent that is not coated with a drug was inserted).

[7] = tested on: thrombus in the right common carotid artery; test: Arterial thrombosis, carotid intima damaged by Dotter balloon catheter; type: in vivo, dogs; conditions: 10 mg/kg intravenously; for Average thrombus weight: wet weight thirty minutes after intima damage
Procedure: Anesthetized dogs were employed for the test. Phenolsulfonphthalein or bromosulfophthalein (10 mg/kg, which is 100 times the amount clinically used for renal function testing) was intravenously administered to each of the animals, and the intima of the right common carotid artery was damaged by means of a Dotter balloon catheter. Thirty minutes later, the common carotid artery was extirpated, and the wet weight of thrombus present in the carotid artery was measured. The thus-measured wet weight was compared with that in the case of the control group.

[8] = tested on: coronary artery stenosis; test: Coronary artery stenosis after balloon angioplasty, local administration (coronary angiography, azan staining); type: in vivo, beagle dogs; conditions: for stenosis as determined through coronary angiography: compared with non-administration group; for Stenosis degree (%): coronary angiography, 5% drug 0.5 mL injected locally after balloon dilation
Source text: (§4) Nembutal-anesthetized beagle dogs were employed for the test. Each of the animals was endotracheally intubated, and ventilated with air. Subsequently, an 8-French sheath was inserted into the right common carotid artery. An 8-French guide catheter was inserted through the sheath, followed by coronary angiography. Subsequently, a clinically employed balloon catheter for coronary angioplasty (outer diameter: 3 mm, length: 20 mm) was inserted, and then the balloon was expanded at 9 atm, to thereby dilate a distal to intermediate portion of the anterior descending branch of the coronary artery. Through this procedure, the blood vessel wall was damaged. Subsequently, the aforementioned perforated balloon catheter equipped with an injection syringe containing 5% phenolsulfonphthalein (0.5 mL) or 5% bromosulfophthalein (0.5 mL) was guided by a guide wire and inserted into the above-dilated portion, and the phthalein compound (drug) was injected into the blood vessel wall at 3 atm. After completion of injection of the drug, the catheter was removed, and then the cervical portion through which the catheter had been inserted was sutured, followed by administration of an antibiotic. After recovery from anesthesia, the animal was cared for one week to one month, and was again subjected to coronary angiography. One week to one month later, the animal was anesthetized to stop cardiac beat and, the heart was removed from the animal, and then subjected to formalin fixation, followed by preparation of a microscopic sample of the above-dilated portion. Subsequently, the thus-prepared sample was subjected to azan staining and various immunostainings.

[9] = tested on: coronary artery stenosis; test: Insertion of drug-eluting stent into coronary artery: degree of stenosis; type: in vivo, beagle dogs; conditions: one month, most stenotic site of stent-inserted portion
Source text: as §3, with “Comparison (in terms of stem cell density) was performed between the drug-eluting stent group and the non-eluting stent group (i.e., the group in which a stent that is not coated with a drug was inserted).” left out

[10] = tested on: β-actin-positive stem cells at the talc-administered site; test: Inflammatory stenosis caused by talc at the coronary artery adventitia: stem cell density; type: in vivo, beagle dogs; conditions: for Number of stem cells (250 × 250 μm^2): one month
Procedure: as §2

[11] = tested on: β-actin-positive stem cells in the coronary artery wall; test: Prevention of stem cell invasion associated with coronary angioplasty, local administration by pored balloon catheter: stem cell count; type: in vivo, beagle dogs; conditions: for stem cell density compared with the non-administration group: at all the membranes
Source text: as §4
(§5) In connection with this finding, in the above-immunostained sample, stem cells per unit area (250×250 um^2) were counted at the highest-cell-density site of the intima, media, or adventitia. Comparison (in terms of the number of stem cells) was performed between drug administration groups and a non-administration group (control group) in which merely saline (0.5 mL) was injected into a portion of the coronary artery dilated with a balloon, and P<0.05 (by Student t test) was regarded as a significant difference.

[12] = tested on: dendritic cells in the coronary artery wall; test: Prevention of cell invasion associated with coronary angioplasty, local administration: dendritic cell count (CD40 immunostaining); type: in vivo, beagle dogs; conditions: for Number of dendritic cells (250 × 250 μm^2): 5% drug 0.5 mL injected locally after balloon dilation; for invasion of dendritic cells: CD40 antibody immunostaining
Source text: as §4, §5
Dendritic cells, which are inflammatory cells, were subjected to immunostaining with a CD40 antibody.

[13] = Adventitia, 5% drug 0.5 mL injected locally after balloon dilation
[14] = Intima, 5% drug 0.5 mL injected locally into vessel wall after balloon dilation, per unit area at highest-cell-density site
[15] = Media, 5% drug 0.5 mL injected locally after balloon dilation

SMILES | number of cells after culturing for three days ([1]; Concentration (mol) 10^−4) | number of cells after culturing for three days ([1]; Concentration (mol) 10^−5) | number of cells after culturing for three days ([1]; Concentration (mol) 10^−6) | number of cells after culturing for three days ([1]; Concentration (mol) 10^−7) | number of cells after culturing for three days ([1]; Concentration (mol) 10^−8) | number of cells after culturing for three days ([4]; Concentration (mol) 10^−4) | number of cells after culturing for three days ([4]; Concentration (mol) 10^−5) | number of cells after culturing for three days ([4]; Concentration (mol) 10^−6) | number of cells after culturing for three days ([4]; Concentration (mol) 10^−7) | number of cells after culturing for three days ([4]; Concentration (mol) 10^−8) | Number of stem cells (250 × 250 μm^2) ([6]; Adventitia) | Number of stem cells (250 × 250 μm^2) ([6]; Intima) | Number of stem cells (250 × 250 μm^2) ([6]; Media) | effect of inhibiting thrombus formation (antithrombotic effect) [7] | Average thrombus weight [7] [mg] | stenosis as determined through coronary angiography [8] | Stenosis degree (%) [8] [%] | effect of inhibiting proliferation of vascular smooth muscle cells [1] | Stenosis degree (%) [9] [%] | Number of stem cells [11, 13] | further results
Cc1cc(-c2ccc(/N=N/c3ccc4c(S(=O)(=O)O)cc(S(=O)(=O)O)c(N)c4c3O)c(C)c2)ccc1/N=N/c1ccc2c(S(=O)(=O)O)cc(S(=O)(=O)O)c(N)c2c1O [Evans Blue] | 0.07*** | 0.34** | 1.00* | 3.50* | 3.89 | 0.12** | 0.98* | 1.54* | 3.11* | 3.50 | – | – | – | – | – | – | – | – | – | – | effect of inhibiting proliferation of vascular smooth muscle cells [2]: has the effect of inhibiting proliferation of vascular smooth muscle cells; antithrombotic effect [3]: antithrombotic effect
O=S1(=O)OC(c2ccc(O)cc2)(c2ccc(O)cc2)c2ccccc21 [Phenolsulfonphthalein, phenolsulfonphthalein] | 3.65 | 3.88 | 4.17 | 4.02 | 4.08 | 3.37 | 3.40 | 3.35 | 3.43 | 3.47 | 16.0 ± 7.1* 250 × 250 μm^2 | 7.1 ± 3.2** 250 × 250 μm^2 | 9.0 ± 4.0* 250 × 250 μm^2 | no effect; also recorded: nor antithrombotic effect | 195 | significantly inhibited | 10.1 ± 2.5 | no effect | 0 ± 0.0 | 19.3 ± 6.3* 250×250 um^2 | degree of stenosis [5]: significantly lower; Stenosis degree (%) ([5]; one month, coronary angiography): 10.4 ± 2.7 %; stenosis due to intimal hyperplasia (FIG. 2) ([8]; four weeks after dilation, azan staining): only slight intimal hyperplasia; also recorded: only slightly observed; β-actin-positive cell density compared with the non-administration group [10]: significantly lower; Number of stem cells (250 × 250 μm^2) ([10]; Adventitia): 12.2 ± 3.4* 250 × 250 μm^2; Number of stem cells (250 × 250 μm^2) ([10]; Intima): 2.0 ± 0.8* 250 × 250 μm^2; Number of stem cells (250 × 250 μm^2) ([10]; Media): 2.6 ± 0.7* 250 × 250 μm^2; Number of stem cells [11, 14]: 11.0 ± 4.2* 250×250 um^2; Number of stem cells [11, 15]: 10.1 ± 2.8* 250×250 um^2; stem cell density compared with the non-administration group [11]: significantly lower; cell invasion (FIG. 2) ([11]; four weeks after dilation): less observed; cell invasion from the adventitia into the intima (FIG. 1) ([11]; one week after dilation with a balloon, azan staining): virtually no cell invasion is observed; also recorded: not observed; effect of inhibiting proliferation of human vascular endothelial cells (HUBEC) [4]: no effect; Number of dendritic cells (250 × 250 μm^2) ([12]; Adventitia): 1.0 ± 0.5* 250 × 250 μm^2; invasion of dendritic cells [12]: inhibited; Number of dendritic cells (250 × 250 μm^2) ([12]; Intima): 0.2 ± 0.0* 250 × 250 μm^2; Number of dendritic cells (250 × 250 μm^2) ([12]; Media): 0.0 ± 0.0* 250 × 250 μm^2
O=C1OC(c2ccc(O)c(S(=O)(=O)O)c2)(c2ccc(O)c(S(=O)(=O)O)c2)c2c(Br)c(Br)c(Br)c(Br)c21 [Bromosulfophthalein, bromosulfophthalein] | 3.43 | 3.78 | 4.19 | 4.14 | 4.24 | 3.44 | 3.43 | 3.52 | 3.59 | 3.34 | 20.3 ± 9.9* 250 × 250 μm^2 | 8.8 ± 2.6** 250 × 250 μm^2 | 8.6 ± 5.0* 250 × 250 μm^2 | no effect; also recorded: nor antithrombotic effect | 210 | significantly inhibited | 33.5 ± 10.4 | no effect | 11.2 ± 3.1 | 22.0 ± 6.2* 250×250 um^2 | Number of stem cells [11, 14]: 14.8 ± 6.1* 250×250 um^2; Number of stem cells [11, 15]: 16.1 ± 4.8 250×250 um^2; stem cell density compared with the non-administration group [11]: significantly lower; effect of inhibiting proliferation of human vascular endothelial cells (HUBEC) [4]: no effect; Number of dendritic cells (250 × 250 μm^2) ([12]; Adventitia): 3.6 ± 0.9* 250 × 250 μm^2; invasion of dendritic cells [12]: inhibited; Number of dendritic cells (250 × 250 μm^2) ([12]; Intima): 1.6 ± 0.4* 250 × 250 μm^2; Number of dendritic cells (250 × 250 μm^2) ([12]; Media): 1.1 ± 0.1 250 × 250 μm^2
